In ChEMBL document CHEMBL2401618 (Eur J Med Chem, 2013):

Assays:
[1] = tested on: Plasmodium falciparum; experiment: Antiplasmodial activity against chloroquine-resistant Plasmodium falciparum FcB1/Columbia infected in human erythrocytes assessed as parasite growth inhibition at 10 ug/ml after 24 hrs by [3H]-hypoxanthine incorporation assay relative to control; type: functional; conditions: read-out: GI
[2] = tested on: Trypanosoma brucei brucei; experiment: Antitrypanosomal activity against bloodstream stage of Trypanosoma brucei brucei 93 assessed as parasite growth inhibition at 10 ug/ml after 72 hrs by resazurin reduction assay relative to control; type: functional; conditions: Trypanosoma brucei, 93, 72 h; read-out: GI
[3] = tested on: Plasmodium falciparum; experiment: Antiplasmodial activity against chloroquine-resistant Plasmodium falciparum FcB1/Columbia infected in human erythrocytes assessed as parasite growth inhibition at 50 ug/ml after 24 hrs by [3H]-hypoxanthine incorporation assay relative to control; type: functional; conditions: read-out: GI
[4] = tested on: Trypanosoma brucei brucei; experiment: Antitrypanosomal activity against bloodstream stage of Trypanosoma brucei brucei 93 assessed as parasite growth inhibition at 50 ug/ml after 72 hrs by resazurin reduction assay relative to control; type: functional; conditions: Trypanosoma brucei, 93, 72 h; read-out: GI
[5] = tested on: Trypanosoma brucei brucei; experiment: Antitrypanosomal activity against bloodstream stage of Trypanosoma brucei brucei 93 assessed as parasite growth inhibition at 1 ug/ml after 72 hrs by resazurin reduction assay relative to control; type: functional; conditions: Trypanosoma brucei, 93, 72 h; read-out: GI
[6] = tested on: Plasmodium falciparum; experiment: Antiplasmodial activity against chloroquine-resistant Plasmodium falciparum FcB1/Columbia infected in human erythrocytes assessed as parasite growth inhibition at 1 ug/ml after 24 hrs by [3H]-hypoxanthine incorporation assay relative to control; type: functional; conditions: read-out: GI
[7] = tested on: Leishmania donovani; experiment: Leishmanicidal activity against promastigote stage of Leishmania donovani LV9 assessed as cell viability by MTT assay; type: functional, organism-based
[8] = Safety index, ratio of IC50 for african green monkey Vero cells to IC50 for chloroquine-resistant Plasmodium falciparum FcB1/Columbia infected in human erythrocytes; type: toxicity, cell-based; conditions: read-out: Ratio IC50
[9] = Safety index, ratio of IC50 for african green monkey Vero cells to IC50 for bloodstream stage of Trypanosoma brucei brucei 93; type: toxicity, cell-based; conditions: read-out: Ratio IC50
[10] = Safety index, ratio of IC50 for african green monkey Vero cells to IC50 for promastigote stage of Leishmania donovani LV9; type: toxicity, cell-based; conditions: read-out: Ratio IC50
[11] = tested on: Vero; experiment: Cytotoxicity against african green monkey Vero cells assessed as growth inhibition after 72 hrs by MTS assay; type: cell-based; conditions: Chlorocebus sabaeus
[12] = tested on: Trypanosoma brucei brucei; experiment: Antitrypanosomal activity against bloodstream stage of Trypanosoma brucei brucei 93 assessed as parasite growth inhibition after 72 hrs by resazurin reduction assay; type: functional, organism-based; conditions: Trypanosoma brucei, 93, 72 h
[13] = tested on: Plasmodium falciparum; experiment: Antiplasmodial activity against chloroquine-resistant Plasmodium falciparum FcB1/Columbia infected in human erythrocytes assessed as parasite growth inhibition after 24 hrs by [3H]-hypoxanthine incorporation assay; type: functional, organism-based

Row | Structure (SMILES) | inhibition of growth at 10 µg/mL [1] [%] | inhibition of growth at 10 µg/mL [2] [%] | inhibition of growth at 50 µg/mL [3] [%] | inhibition of growth at 50 µg/mL [4] [%] | inhibition of growth at 1 µg/mL [5] [%] | inhibition of growth at 1 µg/mL [6] [%] | IC50 [7] [µM] | selectivity ratio [8] | selectivity ratio [9] | selectivity ratio [10] | IC50 [11] [µM] | IC50 [12] [µM] | IC50 [13] [µM]
1 | CCOc1ccc(C(=O)C2=C(O)[C@]3(CC=C(C)C)C[C@H](CC=C(C)C)[C@@](C)(CCC=C(C)C)[C@](CC=C(C)C)(C2=O)C3=O)cc1O [14-O-ETHYL-GUTTIFERONE A] | 28.2 | 94.7 | 99.7 | 93 | 15.8 | 14.9 | 16.2 |  |  |  |  |  | 
2 | COc1ccc(C(=O)C2=C(O)[C@]3(CC=C(C)C)C[C@H](CC=C(C)C)[C@@](C)(CCC=C(C)C)[C@](CC=C(C)C)(C2=O)C3=O)cc1O [14-O-METHYL-GUTTIFERONE A] | 75.2 | 96.3 | 98.9 | 92.8 | 85.3 | 10.7 | 9.4 | 2.6 | 8.1 | 1.2 | 11.5 | 1.42 | 4.46
3 | CC(C)=CCC[C@]1(C)[C@@H](CC=C(C)C)C[C@]2(CC=C(C)C)C(=O)[C@@]1(CC=C(C)C)C(=O)C(C(=O)c1ccc(OC(C)C)c(O)c1)=C2O [14-O-ISOPROPYL-GUTTIFERONE A] | 25.6 | 95.7 | 99.8 | 94.4 | 15.4 | 14.7 | 18 |  |  |  |  |  | 
4 | CCCOc1ccc(C(=O)C2=C(O)[C@]3(CC=C(C)C)C[C@H](CC=C(C)C)[C@@](C)(CCC=C(C)C)[C@](CC=C(C)C)(C2=O)C3=O)cc1O [14-O-PROPYL-GUTTIFERONE A] | 13.4 | 94.6 | 99.6 | 94.2 | 5.33 | 2.36 | 20.7 |  |  |  |  |  | 
5 | CC(C)=CCC[C@]1(C)[C@@H](CC=C(C)C)C[C@]2(CC=C(C)C)C(=O)[C@@]1(CC=C(C)C)C(=O)C(C(=O)c1ccc(OCc3ccccc3)c(OCc3ccccc3)c1)=C2O | 38.6 | 94.8 | 99.1 | 94.9 | 32.8 | 7.07 | > 100 |  | 10.1 | < 0.3 | 32.6 | 3.23 | 
6 | CCCCCCCCCCCCCCCCOP(=O)([O-])OCC[N+](C)(C)C [MILTEFOSINE] |  |  |  |  |  |  | 16.2 |  |  | 4 | 65 |  | 
7 | COc1ccc([N+](=O)[O-])cc1COc1ccc(C(=O)C2=C(O)[C@]3(CC=C(C)C)C[C@H](CC=C(C)C)[C@@](C)(CCC=C(C)C)[C@](CC=C(C)C)(C2=O)C3=O)cc1O [14-O-2-METHOXY-5-NITROBENZYL-GUTTIFERONE A] | 14.6 | 88.9 | 97.4 | 96.1 | 8.4 | 6.06 | > 100 |  |  |  |  |  | 
8 | COc1ccc([N+](=O)[O-])cc1COc1ccc(C(=O)C2=C(O)[C@]3(CC=C(C)C)C[C@H](CC=C(C)C)[C@@](C)(CCC=C(C)C)[C@](CC=C(C)C)(C2=O)C3=O)cc1OCc1cc([N+](=O)[O-])ccc1OC | 20.1 | 51.9 | 79.1 | 93 | 9.11 | 13.7 | > 100 |  |  |  |  |  | 
9 | CC(C)=CCC[C@]1(C)[C@@H](CC=C(C)C)C[C@]2(CC=C(C)C)C(=O)[C@@]1(CC=C(C)C)C(=O)C(C(=O)c1ccc(OC(=O)C=C(C)C)c(OC(=O)C=C(C)C)c1)=C2O | 31.6 | 92 | 94.9 | 96.1 | 10.5 | 3.6 | 28.9 |  |  |  |  |  | 
10 | C[C@@H]1[C@H](O)[C@@H](C)/C=C/C=C/C=C/C=C/C=C/C=C/C=C/[C@H](O[C@@H]2O[C@H](C)[C@@H](O)[C@H](N)[C@@H]2O)C[C@@H]2O[C@](O)(C[C@@H](O)C[C@@H](O)[C@H](O)CC[C@@H](O)C[C@@H](O)CC(=O)O[C@H]1C)C[C@H](O)[C@H]2C(=O)O [AMPHOTERICIN B] |  |  |  |  |  |  | 0.03 |  |  | 11 | 0.33 |  | 
11 | CC(C)=CCC[C@]1(C)[C@@H](CC=C(C)C)C[C@]2(CC=C(C)C)C(=O)[C@@]1(CC=C(C)C)C(=O)C(C(=O)c1ccc(OCCC3OCCO3)c(O)c1)=C2O [14-O-2-ETHYL-1,3-DIOXOLANE-GUTTIFERONE A] | 49.1 | 96.4 | 99.6 | 94.9 | 8.18 | 15.3 | 22.2 |  |  |  |  |  | 
12 | CCCC(=O)Oc1ccc(C(=O)C2=C(O)[C@]3(CC=C(C)C)C[C@H](CC=C(C)C)[C@@](C)(CCC=C(C)C)[C@](CC=C(C)C)(C2=O)C3=O)cc1OC(=O)CCC | 96.5 | 96.2 | 99.7 | 94.9 | 35 | -0.82 | 13.3 | 1.6 | 3 | 0.6 | 7.9 | 2.65 | 5.06
13 | COCOc1ccc(C(=O)C2=C(O)[C@]3(CC=C(C)C)C[C@H](CC=C(C)C)[C@@](C)(CCC=C(C)C)[C@](CC=C(C)C)(C2=O)C3=O)cc1OCOC | 20.9 | 95.5 | 99.5 | 93.2 | 6.82 | 7.94 | 23.3 |  |  |  |  |  | 
14 | CC(=O)Oc1ccc(C(=O)C2=C(O)[C@]3(CC=C(C)C)C[C@H](CC=C(C)C)[C@@](C)(CCC=C(C)C)[C@](CC=C(C)C)(C2=O)C3=O)cc1OC(C)=O | 97.5 | 97.2 | 99.7 | 93.3 | 38.5 | 14.9 |  | 1.1 | 1.3 |  | 3.77 | 2.95 | 3.63
15 | CC(C)=CCC[C@]1(C)[C@@H](CC=C(C)C)C[C@]2(CC=C(C)C)C(=O)[C@@]1(CC=C(C)C)C(=O)C(C(=O)c1ccc(OCc3ccccc3)c(O)c1)=C2O [14-O-BENZYL-GUTTIFERONE A] | 49 | 96 | 99.1 | 95 | 23.6 | 16.1 | 22.4 |  |  |  |  |  | 
16 | COc1ccc(C(=O)C2=C(O)[C@]3(CC=C(C)C)C[C@H](CC=C(C)C)[C@@](C)(CCC=C(C)C)[C@](CC=C(C)C)(C2=O)C3=O)cc1OC | 59.2 | 96.3 | 99.3 | 94 | 17.7 | 13.8 | 12.2 |  |  | 1.8 | 21.8 |  | 
17 | COCOc1ccc(C(=O)C2=C(O)[C@]3(CC=C(C)C)C[C@H](CC=C(C)C)[C@@](C)(CCC=C(C)C)[C@](CC=C(C)C)(C2=O)C3=O)cc1O [14-O-METHOXYMETHYL-GUTTIFERONE A] | 74.8 | 96.3 | 99.6 | 92.5 | 13.2 | 10.8 | 14.6 | 2.7 |  | 0.9 | 13 |  | 4.84
18 | C#CCOc1ccc(C(=O)C2=C(O)[C@]3(CC=C(C)C)C[C@H](CC=C(C)C)[C@@](C)(CCC=C(C)C)[C@](CC=C(C)C)(C2=O)C3=O)cc1O [14-O-PROPARGYL-GUTTIFERONE A] | 49.4 | 96 | 99.5 | 92.1 | 20.9 | 6.95 | 18 |  |  |  |  |  | 
19 | CCN(CC)CCCC(C)Nc1ccnc2cc(Cl)ccc12 (configuration not stated) [CHLOROQUINE] |  |  |  |  |  |  |  |  |  |  | 21 |  | 
20 | C=CCOc1ccc(C(=O)C2=C(O)[C@]3(CC=C(C)C)C[C@H](CC=C(C)C)[C@@](C)(CCC=C(C)C)[C@](CC=C(C)C)(C2=O)C3=O)cc1O [14-O-ALLYL-GUTTIFERONE A] | 11 | 95.1 | 99.5 | 92.6 | 20.3 | 0.83 | 15.7 |  |  |  |  |  | 
